Key:
rat's sciatic nerve = assay: Local anesthetic effect after injection near the rat sciatic nerve (von Frey stimulation; Postural Extensor Thrust for motor function); assay type: in vivo; conditions: SD rats, 0.5 mL near sciatic nerve, compounds 20 mmol/mL; for Duration of motor block: Postural Extensor Thrust; for Duration of motor block / Duration of sensory block: levobupivacaine 0.75%, lidocaine 2%; for Local anesthesia onset time: levobupivacaine 0.75% (22 mmol/L), lidocaine 2% (74 mmol/L); for Duration of sensory block: von Frey
Method: Dosage: for lidocaine group, lidocaine was formulated with distilled water into a solution at the concentration of 2% (74 mmol/L); for levobupivacaine group, levobupivacaine was formulated with distilled water into a solution at the concentration of 0.75% (22 mmol/L); the compound of the present invention was formulated with distilled water into a solution at the concentration of […].
The injection volume for each rat was 0.5 mL, which was guided by a nerve locator and injected near the rat's sciatic nerve. Using von Frey stimulator, the rats were stimulated the soles of the feet in the injected side, to observe the effect of local anesthesia. Meanwhile, Postural Extensor Thrust (PET) was used to evaluate the motor function of the rat: the rat was lifted vertically and the hindlimb in the injected side pedaled on the platform of the electronic balance. […] When the limb was completely paralyzed, the reading was the limb's own weight, about 20 g. If the measured value was more than half of the difference between the baseline and the limb weight, the motor function was regarded as recovery, and if the value was […], the motor function was regarded as loss.

back skin of SD rat = assay: Local anesthetic effect by subcutaneous infiltration (back skin, Von Frey fiber 100 g); assay type: in vivo; conditions: SD rats, 0.5 mL subcutaneous in saline; compounds 6 mmol/L, controls 0.75% (22 mmol/L) and 2% (74 mmol/L)
Method: After the back of SD rat weighing 250-300 g (half female and half male) was shaved and disinfected, a circle with a diameter of about 1.5 cm was drawn on the side of the exposed back, and the circle is divided into 6 equal parts. […] Among the Von Frey fiber yarns, the one with a strength of 100 g was bound to the needle for local skin stimulation. One minute After the drug was injected, the above method was used to stimulate in 6 divisions. […] If back skin contraction was observed, the local anesthetic effect was considered as loss. […] Each compound was tested with 10 rats.

[1] = QX314 with the addition of surfactants (Kohane, PNAS 2010); cited from earlier work

Cc1cccc(C)c1NC(=O)C[N+](CCCCO)(CCCCO)CCCCCCCCN1CCCCCCC1C(=O)Nc1c(C)cccc1C (stereo not shown) [Example 44 product]
Duration of motor block (rat's sciatic nerve): 16 h | Local anesthesia onset time (rat's sciatic nerve): 5 min | Duration of sensory block (rat's sciatic nerve): 69 h | Duration of local anesthesia (median) (back skin of SD rat): 51 h | Local anesthesia onset time (median) (back skin of SD rat): 2 min

Cc1cccc(C)c1NC(=O)C[N+](CCCCCCCS)(CCCCCCCN1CCCCC1C(=O)Nc1c(C)cccc1C)CCCCCC(=O)O (stereo not shown) [Example 45 product]
Duration of motor block (rat's sciatic nerve): 20 h | Local anesthesia onset time (rat's sciatic nerve): 3 min | Duration of sensory block (rat's sciatic nerve): 58 h | Duration of local anesthesia (median) (back skin of SD rat): 89 h | Local anesthesia onset time (median) (back skin of SD rat): 1 min

Cc1cccc(C)c1NC(=O)C[N+]1(CCCCN2CCCCC2C(=O)Nc2c(C)cccc2C)CCOC(C)C1 (stereo not shown) [Example 48 product]
Duration of motor block (rat's sciatic nerve): 15 h | Local anesthesia onset time (rat's sciatic nerve): 5 min | Duration of sensory block (rat's sciatic nerve): 57 h | Duration of local anesthesia (median) (back skin of SD rat): 73 h | Local anesthesia onset time (median) (back skin of SD rat): 2 min

Cc1cccc(C)c1NC(=O)C[N+]1(CCCCN2CCCCC2C(=O)Nc2c(C)cccc2C)CCOCC1C (stereo not shown) [Example 49 product]
Duration of motor block (rat's sciatic nerve): 20 h | Local anesthesia onset time (rat's sciatic nerve): 4 min | Duration of sensory block (rat's sciatic nerve): 45 h | Duration of local anesthesia (median) (back skin of SD rat): 62 h | Local anesthesia onset time (median) (back skin of SD rat): 1 min

Cc1cccc(C)c1NC(=O)C[N+]1(CCCCN2CCCCC2C(=O)Nc2c(C)cccc2C)CC(C)OC(C)C1 (stereo not shown) [Example 50 product]
Duration of motor block (rat's sciatic nerve): 13 h | Local anesthesia onset time (rat's sciatic nerve): 5 min | Duration of sensory block (rat's sciatic nerve): 56 h | Duration of local anesthesia (median) (back skin of SD rat): 56 h | Local anesthesia onset time (median) (back skin of SD rat): 2 min

Cc1cccc(C)c1NC(=O)C[N+]1(CCCCN2CCCCC2C(=O)Nc2c(C)cccc2C)C(C)COCC1C (stereo not shown) [Example 51 product]
Duration of motor block (rat's sciatic nerve): 19 h | Local anesthesia onset time (rat's sciatic nerve): 5 min | Duration of sensory block (rat's sciatic nerve): 44 h | Duration of local anesthesia (median) (back skin of SD rat): 89 h | Local anesthesia onset time (median) (back skin of SD rat): 1 min

Cc1cccc(C)c1NC(=O)C[N+]1(CCCCCCN2CCCCC2C(=O)Nc2c(C)cccc2C)CCOCC1 (stereo not shown) [Example 52 product]
Duration of motor block (rat's sciatic nerve): 15 h | Local anesthesia onset time (rat's sciatic nerve): 2 min | Duration of sensory block (rat's sciatic nerve): 56 h | Duration of local anesthesia (median) (back skin of SD rat): 85 h | Local anesthesia onset time (median) (back skin of SD rat): 3 min

Cc1cccc(C)c1NC(=O)C[N+]1(CCCCCCN2CCCCC2C(=O)Nc2c(C)cccc2C)CCOC(C)C1 (stereo not shown) [Example 54 product]
Duration of motor block (rat's sciatic nerve): 15 h | Local anesthesia onset time (rat's sciatic nerve): 5 min | Duration of sensory block (rat's sciatic nerve): 66 h | Duration of local anesthesia (median) (back skin of SD rat): 69 h | Local anesthesia onset time (median) (back skin of SD rat): 2 min

CCCCC[N+](CCCS)(CCCCCCCCN1CCCCCCC1C(=O)Nc1c(C)cccc1C)CC(=O)Nc1c(C)cccc1C (stereo not shown) [Example 57 product]
Duration of motor block (rat's sciatic nerve): 13 h | Local anesthesia onset time (rat's sciatic nerve): 5 min | Duration of sensory block (rat's sciatic nerve): 69 h | Duration of local anesthesia (median) (back skin of SD rat): 85 h | Local anesthesia onset time (median) (back skin of SD rat): 1 min

Cc1cccc(C)c1NC(=O)C[N+]1(CCCSCCCN2CCCCC2C(=O)Nc2c(C)cccc2C)CC(C)OC(C)C1 (stereo not shown) [Example 58 product]
Duration of motor block (rat's sciatic nerve): 16 h | Local anesthesia onset time (rat's sciatic nerve): 3 min | Duration of sensory block (rat's sciatic nerve): 57 h | Duration of local anesthesia (median) (back skin of SD rat): 71 h | Local anesthesia onset time (median) (back skin of SD rat): 2 min

CCCCC[N+](CCO)(CCCCCCN1CCCC1C(=O)Nc1c(C)cccc1C)CC(=O)Nc1c(C)cccc1C (stereo not shown) [Example 59 product]
Duration of motor block (rat's sciatic nerve): 15 h | Local anesthesia onset time (rat's sciatic nerve): 1 min | Duration of sensory block (rat's sciatic nerve): 54 h | Duration of local anesthesia (median) (back skin of SD rat): 72 h | Local anesthesia onset time (median) (back skin of SD rat): 1 min

Cc1cccc(C)c1NC(=O)C[N+](CCO)(CCCCO)CCCCCCN1CCCC1C(=O)Nc1c(C)cccc1C (stereo not shown) [Example 60 product]
Duration of motor block (rat's sciatic nerve): 20 h | Local anesthesia onset time (rat's sciatic nerve): 1 min | Duration of sensory block (rat's sciatic nerve): 54 h | Duration of local anesthesia (median) (back skin of SD rat): 66 h | Local anesthesia onset time (median) (back skin of SD rat): 2 min

CCOCC[N+](CCO)(CCCCCCN1CCCC1C(=O)Nc1c(C)cccc1C)CC(=O)Nc1c(C)cccc1C (stereo not shown) [Example 61 product]
Duration of motor block (rat's sciatic nerve): 11 h | Local anesthesia onset time (rat's sciatic nerve): 3 min | Duration of local anesthesia (median) (back skin of SD rat): 86 h | Local anesthesia onset time (median) (back skin of SD rat): 1 min

CCSCC[N+](CCO)(CCCCCCN1CCCC1C(=O)Nc1c(C)cccc1C)CC(=O)Nc1c(C)cccc1C (stereo not shown) [Example 62 product]
Duration of motor block (rat's sciatic nerve): 21 h | Local anesthesia onset time (rat's sciatic nerve): 5 min | Duration of sensory block (rat's sciatic nerve): 51 h | Duration of local anesthesia (median) (back skin of SD rat): 88 h | Local anesthesia onset time (median) (back skin of SD rat): 1 min

CCCCC[N+](CCCCCCN1CCC1C(=O)Nc1c(C)cccc1C)(CCSCC)CC(=O)Nc1c(C)cccc1C (stereo not shown) [Example 63 product]
Duration of motor block (rat's sciatic nerve): 14 h | Local anesthesia onset time (rat's sciatic nerve): 3 min | Duration of sensory block (rat's sciatic nerve): 64 h | Duration of local anesthesia (median) (back skin of SD rat): 79 h | Local anesthesia onset time (median) (back skin of SD rat): 1 min

CCCCC[N+](CCCCO)(CCCCCCN1CCC1C(=O)Nc1c(C)cccc1C)CC(=O)Nc1c(C)cccc1C (stereo not shown) [Example 64 product]
Duration of motor block (rat's sciatic nerve): 13 h | Local anesthesia onset time (rat's sciatic nerve): 3 min | Duration of sensory block (rat's sciatic nerve): 67 h | Duration of local anesthesia (median) (back skin of SD rat): 69 h | Local anesthesia onset time (median) (back skin of SD rat): 1 min

CCCCC[N+](CCCCC)(CCCCCCN1CCC1C(=O)Nc1c(C)cccc1C)CC(=O)Nc1c(C)cccc1C (stereo not shown) [Example 65 product]
Duration of motor block (rat's sciatic nerve): 19 h | Local anesthesia onset time (rat's sciatic nerve): 5 min | Duration of sensory block (rat's sciatic nerve): 59 h | Duration of local anesthesia (median) (back skin of SD rat): 68 h | Local anesthesia onset time (median) (back skin of SD rat): 1 min

Cc1cccc(C)c1NC(=O)C[N+](CCCCO)(CCCCO)CCCCCCN1CCC1C(=O)Nc1c(C)cccc1C (stereo not shown) [Example 66 product]
Duration of motor block (rat's sciatic nerve): 10 h | Local anesthesia onset time (rat's sciatic nerve): 1 min | Duration of sensory block (rat's sciatic nerve): 60 h | Duration of local anesthesia (median) (back skin of SD rat): 87 h | Local anesthesia onset time (median) (back skin of SD rat): 1 min

CCOCC[N+](CCCCCCN1CCC1C(=O)Nc1c(C)cccc1C)(CCOCC)CC(=O)Nc1c(C)cccc1C (stereo not shown) [Example 67 product]
Duration of motor block (rat's sciatic nerve): 14 h | Local anesthesia onset time (rat's sciatic nerve): 1 min | Duration of sensory block (rat's sciatic nerve): 67 h | Duration of local anesthesia (median) (back skin of SD rat): 58 h | Local anesthesia onset time (median) (back skin of SD rat): 1 min

CCCCC[N+](CCCCC)(CCCCCCCN1CCCCCC1C(=O)Nc1c(C)cccc1C)CC(=O)Nc1c(C)cccc1C (stereo not shown) [Example 68 product]
Duration of motor block (rat's sciatic nerve): 21 h | Local anesthesia onset time (rat's sciatic nerve): 1 min | Duration of sensory block (rat's sciatic nerve): 79 h | Duration of local anesthesia (median) (back skin of SD rat): 73 h | Local anesthesia onset time (median) (back skin of SD rat): 3 min

CCCCC[N+](CCCCS)(CCCCCCCN1CCCCCC1C(=O)Nc1c(C)cccc1C)CC(=O)Nc1c(C)cccc1C (stereo not shown) [Example 69 product]
Duration of motor block (rat's sciatic nerve): 10 h | Local anesthesia onset time (rat's sciatic nerve): 1 min | Duration of sensory block (rat's sciatic nerve): 62 h | Duration of local anesthesia (median) (back skin of SD rat): 80 h | Local anesthesia onset time (median) (back skin of SD rat): 1 min

CCCCC[N+](CCCCCCCN1CCCCCC1C(=O)Nc1c(C)cccc1C)(CCOCC)CC(=O)Nc1c(C)cccc1C (stereo not shown) [Example 70 product]
Duration of motor block (rat's sciatic nerve): 17 h | Local anesthesia onset time (rat's sciatic nerve): 2 min | Duration of sensory block (rat's sciatic nerve): 53 h | Duration of local anesthesia (median) (back skin of SD rat): 75 h | Local anesthesia onset time (median) (back skin of SD rat): 4 min

CCCCCCCCCC[N+](CO)(CCOCCN1CCCCC1C(=O)Nc1c(C)cccc1C)CC(=O)Nc1c(C)cccc1C (stereo not shown) [Example 72 product]
Duration of motor block (rat's sciatic nerve): 10 h | Local anesthesia onset time (rat's sciatic nerve): 1 min | Duration of sensory block (rat's sciatic nerve): 65 h | Duration of local anesthesia (median) (back skin of SD rat): 72 h | Local anesthesia onset time (median) (back skin of SD rat): 1 min

CCCCCC[N+](CCCCCC)(CCCN1CCCCC1C(=O)Nc1c(C)cccc1C)CC(=O)Nc1c(C)cccc1C (stereo not shown) [Example 73 product]
Duration of motor block (rat's sciatic nerve): 20 h | Local anesthesia onset time (rat's sciatic nerve): 3 min | Duration of sensory block (rat's sciatic nerve): 51 h | Duration of local anesthesia (median) (back skin of SD rat): 59 h | Local anesthesia onset time (median) (back skin of SD rat): 2 min

CCCCCCCC[N+](CCCCCCC)(CCCN1CCCCC1C(=O)Nc1c(C)cccc1C)CC(=O)Nc1c(C)cccc1C (stereo not shown) [Example 74 product]
Duration of motor block (rat's sciatic nerve): 17 h | Local anesthesia onset time (rat's sciatic nerve): 1 min | Duration of sensory block (rat's sciatic nerve): 72 h | Duration of local anesthesia (median) (back skin of SD rat): 56 h | Local anesthesia onset time (median) (back skin of SD rat): 1 min

CCCCCCC[N+](CCCCC)(CCOCCN1CCCCC1C(=O)Nc1c(C)cccc1C)CC(=O)Nc1c(C)cccc1C (stereo not shown) [Example 76 product]
Duration of motor block (rat's sciatic nerve): 14 h | Local anesthesia onset time (rat's sciatic nerve): 3 min | Duration of sensory block (rat's sciatic nerve): 59 h | Duration of local anesthesia (median) (back skin of SD rat): 64 h | Local anesthesia onset time (median) (back skin of SD rat): 2 min

CC[N+](CC)(CC)CC(=O)Nc1c(C)cccc1C [QX314]
duration of local anesthesia [1]: more than 8 hours

— patent US20220135526A1, “QUATERNARY AMMONIUM SALT COMPOUND, PREPARATION METHOD THEREFOR AND USE THEREOF” (WEST CHINA HOSPITAL, SICHUAN UNIVERSITY, priority 2019, published 2022)
